Results reported in PMC8929122, “Application of a Combined Peptidomics and In Silico Approach for the Identification of Novel Dipeptidyl Peptidase-IV-Inhibitory Peptides in In Vitro Digested Pinto Bean Protein Extract” (Current Issues in Molecular Biology, 2021).
Peptide text beside a SMILES is read from it.

Columns and labels:
rat intestinal DPP-IV = target: T1, rat intestinal DPP-IV (Rattus norvegicus, UniProt P14740); assay: In vitro DPP-IV inhibitory activity of synthetic peptides; format: biochemical; conditions: rat intestinal DPP-IV 0.1 U/mL; 0.1 mol/L Tris-HCl pH 7.0; 20 min pre-incubation at 37 °C; glycine-proline-p-nitroanilide 6.4 mmol/L (5 μL); 20 min reaction at 37 °C; absorbance 405 nm; mean ± SD, three replicates; read-out: IC50 value for DPP-IV inhibition
T1 construct: 10 μL of rat intestinal DPP-IV (0.1 U/mL in the assay); from tissue; host or cells: rat intestine
T1 sequence (P14740 whole entry): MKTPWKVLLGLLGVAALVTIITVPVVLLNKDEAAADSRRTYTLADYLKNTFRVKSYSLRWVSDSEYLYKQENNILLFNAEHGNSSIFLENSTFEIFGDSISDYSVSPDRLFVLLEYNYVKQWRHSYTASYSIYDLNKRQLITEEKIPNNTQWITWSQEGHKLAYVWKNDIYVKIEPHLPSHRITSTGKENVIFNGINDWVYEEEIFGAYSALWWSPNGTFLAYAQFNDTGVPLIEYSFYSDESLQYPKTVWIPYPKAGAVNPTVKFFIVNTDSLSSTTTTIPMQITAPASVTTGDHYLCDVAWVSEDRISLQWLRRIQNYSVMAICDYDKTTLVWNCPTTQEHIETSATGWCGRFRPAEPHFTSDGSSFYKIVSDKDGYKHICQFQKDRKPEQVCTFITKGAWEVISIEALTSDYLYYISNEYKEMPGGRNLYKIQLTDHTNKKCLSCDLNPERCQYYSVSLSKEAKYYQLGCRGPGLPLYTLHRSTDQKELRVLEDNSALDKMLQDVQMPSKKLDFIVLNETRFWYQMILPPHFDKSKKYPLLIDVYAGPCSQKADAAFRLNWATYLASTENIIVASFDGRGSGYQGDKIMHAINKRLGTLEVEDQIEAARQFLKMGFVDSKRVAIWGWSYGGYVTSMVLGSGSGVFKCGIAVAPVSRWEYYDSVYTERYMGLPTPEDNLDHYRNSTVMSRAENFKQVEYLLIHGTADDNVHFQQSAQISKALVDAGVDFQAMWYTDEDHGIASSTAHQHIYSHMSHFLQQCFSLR
Description: Selected synthetic peptides (Bio-Fab Research, Rome, Italy) were then tested for their DPP-IV-inhibitory activity as reported in Tagliazucchi et al.. Briefly, 145 μL of 0.1 mol/L Tris-HCl buffer (pH 7.0) were mixed with 10 μL of rat intestinal DPP-IV (0.1 U/mL in the assay) and 40 μL of synthetic peptides at different concentrations, in a 96-well plate. The reaction was started after 20 min of pre-incubation at 37 °C by the addition of 5 μL of 6.4 mmol/L glycine-proline-p-nitroanilide. After a further 20 min of reaction at 37 °C, the amount of released p-nitroanilide was measured by reading the absorbance at 405 nm in a microplate reader. Results were expressed as IC50 values (peptide concentration that inhibit the 50% of the enzymatic activity) by plotting the peptide concentration (base-10 logarithm) as a function of the enzyme inhibition percentage.
All data are reported as mean ± standard deviation (SD) for three replicates for each prepared sample. GraphPad Prism 6.0 (GraphPad Software, San Diego, CA, USA) was used for univariate analysis of variance (ANOVA) with Tukey post-hoc test. The differences were considered significant when p < 0.05.

[1] = test system: Dipeptidyl peptidase IV (DPP-IV); conditions: Parmigiano Reggiano peptides, previous study; cited from earlier work
From the text: Table 1 Peptides with previously reported biological activity identified in in vitro-digested Pinto bean protein extract. | column: Bioactivity ^1 || The described approach was applied in a previous study on Parmigiano Reggiano samples allowing the selection of 6 candidates to be tested in vitro starting from a pool of 415 peptides identified by peptidomics techniques. […] The high inhibitory potency of SAPI was probably due to the combined presence of an A residue in second position and a P residue in third position. […] The PepSite2 server was used to predict the possible interaction between SAPI and the DPP-IV binding sites by analyzing the enzyme active site residues closer to the peptide amino ...

Compound	IC50 (rat intestinal DPP-IV) [µM]	DPP-IV inhibition (in words) [1]
CC(C)[C@H](NC(=O)[C@@H](N)Cc1ccccc1)C(=O)N1CCC[C@H]1C(=O)N[C@@H](Cc1c[nH]cn1)C(=O)O [FVPH] (H-FVPH-OH)	480.6 ± 2.1	
CC[C@H](C)[C@H](NC(=O)[C@@H]1CCCN1C(=O)[C@H](C)NC(=O)[C@@H](N)CO)C(=O)O [SAPI] (H-SAPI-OH)	57.7	
CC[C@H](C)[C@H](NC(=O)[C@@H](N)CO)C(=O)N1CCC[C@H]1C(=O)N[C@@H](CCCNC(=N)N)C(=O)O [SIPR] (H-SIPR-OH)	189 ± 1.5	
APFPE		novel potent DPP-IV inhibitor
